Data taken from the NIST ThermoML archive (doi:10.1016/j.fluid.2012.11.008).
Numbers after ± are expanded uncertainties.

Experiment: refractive index (Na D-line) (dimensionless)
Details: 293.15 K; 101.33 kPa; Liquid; Standard Abbe refractometry

| refractive index | SMILES |
| --- | --- |
| 1.3618 ± 0.0007 | CCO [ethanol] |
| 1.3724 ± 0.0007 | CCOC(C)=O [ethyl acetate] |
| 1.3878 ± 0.0007 | CCCCCCC [heptane] |
| 1.3752 ± 0.0007 | CCCCCC [hexane] |

More lines, now with the values behind:

| SMILES | refractive index |
| --- | --- |
| CCC(C)(C)OC [2-methoxy-2-methylbutane] | 1.3886 ± 0.0009 |
| COC(C)(C)C [2-methoxy-2-methylpropane] | 1.3689 ± 0.0007 |
| CCC=C(C)C [2-methyl-2-pentene] | 1.4003 ± 0.0008 |
| CC#N [acetonitrile] | 1.3439 ± 0.0007 |
| CO [methanol] | 1.3287 ± 0.0007 |
